From patent publication US6441195B1, “Substituted sulphonylamino(thio) carbonyl compounds” (Bayer Aktiengesellschaft, priority 1995, dated 2002)

What was measured:
Assay type in all cases: in vivo
Matricaria = assay: Pre-emergence test/Greenhouse, Matricaria; conditions: after three weeks
Summary of the method: (§1)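 Pre-emergence soil drench ~24 h after sowing; compound in solvent/emulsifier diluted with water, constant water per area, dose defined by rate per unit area. Read-out at 3 wk: % damage vs untreated control, 0% = no action.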

Solanum = assay: Pre-emergence test/Greenhouse, Solanum; conditions: after three weeks
Summary of the method: as §1

Lolium = assay: Pre-emergence test/Greenhouse, Lolium; conditions: after three weeks
Summary of the method: as §1

Poa = assay: Pre-emergence test/Greenhouse, Poa; conditions: after three weeks
Summary of the method: as §1

Sorghum = assay: Pre-emergence test/Greenhouse, Sorghum; conditions: after three weeks
Method: (§2) To produce a suitable preparation of the active compound, 1 part by weight of active compound is mixed with the stated amount of solvent, the stated amount of emulsifier is added and the concentrate is diluted with water to the desired concentration.
(§3) Seeds of the test plants are sown in normal soil. After about 24 hours, the soil is watered with the preparation of active compound. Advantageously, the amount of water per unit area is kept constant. The active compound concentration in the preparation is not important, only the active compound appliation rate per unit area matters.
(§4) After three weeks, the degree of damage to the plants is rated in % damage in comparison to the development of the untreated control.
(§5) 0%=no action (like untreated control)

Ambrosia = assay: Pre-emergence test/Greenhouse, Ambrosia; conditions: after three weeks
Summary of the method: as §1

weeds = assay: Pre-emergence test (greenhouse), activity against weeds; conditions: in words
Summary of the method: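 Three weeks after treatment, % damage relative to untreated plants is scored, 0% meaning no effect. Seeds in normal soil received, roughly one day post-sowing, an aqueous dilution of an acetone/emulsifier concentrate, with the rate per unit area, not concentration, being the relevant dose.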

Soya beans = assay: Pre-emergence test/Greenhouse, Soya beans; conditions: in vivo
Method: as §2, §3, §4, §5

Maize = assay: Pre-emergence test/Greenhouse, Maize; conditions: in vivo
Summary of the method: as §1

Structure (SMILES)	activity against weeds (weeds)	degree of damage to the plants (% damage vs untreated control), Soya beans (Soya beans) [%]	degree of damage to the plants (% damage vs untreated control), Matricaria (Matricaria; 125 g of ai./ha) [%]	degree of damage to the plants (% damage vs untreated control), Solanum (Solanum; 125 g of ai./ha) [%]	degree of damage to the plants (% damage vs untreated control), Lolium (Lolium; 125 g of ai./ha) [%]	degree of damage to the plants (% damage vs untreated control), Sorghum (Sorghum; 125 g of ai./ha) [%]	degree of damage to the plants (% damage vs untreated control), Matricaria (Matricaria; 60 g of ai./ha) [%]	degree of damage to the plants (% damage vs untreated control), Solanum (Solanum; 60 g of ai./ha) [%]	degree of damage to the plants (% damage vs untreated control), Lolium (Lolium; 60 g of ai./ha) [%]	degree of damage to the plants (% damage vs untreated control), Sorghum (Sorghum; 60 g of ai./ha) [%]	also measured
CCCOc1nn(C(=O)NS(=O)(=O)c2c(C)cccc2C(=O)OC(C)C)c(=O)n1C [Example 17]	very strong activity against weeds	0	–	–	–	–	–	–	–	–	degree of damage to the plants (% damage vs untreated control), Matricaria (Matricaria; 30 g of ai./ha): 95%; degree of damage to the plants (% damage vs untreated control), Solanum (Solanum; 30 g of ai./ha): 95%; degree of damage to the plants (% damage vs untreated control), Lolium (Lolium; 30 g of ai./ha): 80%; degree of damage to the plants (% damage vs untreated control), Poa (Poa; 30 g of ai./ha): 95%; degree of damage to the plants (% damage vs untreated control), Sorghum (Sorghum; 30 g of ai./ha): 60%; degree of damage to the plants (% damage vs untreated control), Ambrosia (Ambrosia; 30 g of ai./ha): 95%
COC(=O)c1cccc(C)c1S(=O)(=O)NC(=O)n1nc(SCCF)n(C)c1=O [Example 152]	very strong activity against weeds	20	80	95	95	95	–	–	–	–	degree of damage to the plants (% damage vs untreated control), Poa (Poa; 125 g of ai./ha): 95%; degree of damage to the plants (% damage vs untreated control), Ambrosia (Ambrosia; 125 g of ai./ha): 95%
COC(=O)c1cccc(C)c1S(=O)(=O)NC(=O)n1nc(OCC2CC2)n(C2CC2)c1=O [Example 172]	very strong activity against weeds	60	95	95	90	90	–	–	–	–	degree of damage to the plants (% damage vs untreated control), Poa (Poa; 125 g of ai./ha): 95%; degree of damage to the plants (% damage vs untreated control), Ambrosia (Ambrosia; 125 g of ai./ha): 90%
CCOc1nn(C(=O)NS(=O)(=O)c2c(C)cccc2C(=O)OC(C)C)c(=O)n1CC [Example 43]	very strong activity against weeds	10	–	–	–	–	95	95	95	80	degree of damage to the plants (% damage vs untreated control), Poa (Poa; 60 g of ai./ha): 95%; degree of damage to the plants (% damage vs untreated control), Ambrosia (Ambrosia; 60 g of ai./ha): 95%
CCOc1nn(C(=O)NS(=O)(=O)c2c(C)csc2C(=O)OC(C)C)c(=O)n1C [Example 76]	very strong activity against weeds	30	–	–	–	–	100	95	95	95	degree of damage to the plants (% damage vs untreated control), Maize (Maize): 0%
COC(=O)c1cccc(OC)c1S(=O)(=O)NC(=O)n1nc(OC(C)C)n(C2CC2)c1=O [Example 135]	very strong activity against weeds	40	90	95	95	90	–	–	–	–	degree of damage to the plants (% damage vs untreated control), Poa (Poa; 125 g of ai./ha): 95%; degree of damage to the plants (% damage vs untreated control), Ambrosia (Ambrosia; 125 g of ai./ha): 90%
CCOc1nn(C(=O)NS(=O)(=O)c2c(C)csc2C(=O)OC(C)C)c(=O)n1CC [Example 86]	very strong activity against weeds	40	100	95	80	70	–	–	–	–	degree of damage to the plants (% damage vs untreated control), Maize (Maize): 10%
COC(=O)c1cccc(C)c1S(=O)(=O)NC(=O)n1nc(OCC2CC2)n(C)c1=O [Example 167]	very strong activity against weeds	30	–	–	–	–	95	90	80	95	degree of damage to the plants (% damage vs untreated control), Poa (Poa; 60 g of ai./ha): 95%; degree of damage to the plants (% damage vs untreated control), Ambrosia (Ambrosia; 60 g of ai./ha): 90%
COc1nn(C(=O)NS(=O)(=O)c2c(C)cccc2C(=O)OC(C)C)c(=O)n1C [Example 16]	very strong activity against weeds	0	–	–	–	–	–	–	–	–	degree of damage to the plants (% damage vs untreated control), Matricaria (Matricaria; 30 g of ai./ha): 95%; degree of damage to the plants (% damage vs untreated control), Solanum (Solanum; 30 g of ai./ha): 95%; degree of damage to the plants (% damage vs untreated control), Lolium (Lolium; 30 g of ai./ha): 95%; degree of damage to the plants (% damage vs untreated control), Poa (Poa; 30 g of ai./ha): 95%; degree of damage to the plants (% damage vs untreated control), Sorghum (Sorghum; 30 g of ai./ha): 90%; degree of damage to the plants (% damage vs untreated control), Ambrosia (Ambrosia; 30 g of ai./ha): 95%
CCOn1c(CC)nn(C(=O)NS(=O)(=O)c2c(C)cccc2C(=O)OC)c1=O [Example 155]	very strong activity against weeds	40	–	–	–	–	80	95	95	95	degree of damage to the plants (% damage vs untreated control), Poa (Poa; 60 g of ai./ha): 95%; degree of damage to the plants (% damage vs untreated control), Ambrosia (Ambrosia; 60 g of ai./ha): 90%
Cc1csc(C(=O)OC(C)C)c1S(=O)(=O)NC(=O)n1nc(OC(C)C)n(C)c1=O [Example 84]	very strong activity against weeds	30	95	100	95	90	–	–	–	–	degree of damage to the plants (% damage vs untreated control), Maize (Maize): 5%
